The source of these data is PubChem BioAssay (NCI).

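Each compound was tested at five concentrations against cells in 96-well plates for 48 hours. Abbreviation: GI50, concentration required for 50% inhibition of growth. TGI denotes the concentration required for complete inhibition of growth.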

Some test systems named below: SW-620 colon; A498 renal; HCT-116 colon; SF-268 CNS; EKVX NSCLC; CCRF-CEM leukemia; MALME-3M melanoma; OVCAR-4 ovarian; SK-MEL-2 melanoma; UACC-62 melanoma.
Assay in all cases: NCI-60 cell line screen, 48 h

In the case of `CCN1C2=NC(=O)N(C)C(=O)C2(Cl)C(C(SC)S(=O)(=O)c2ccc(C)cc2)c2ccccc21` (stereo not given), the TGI is above 100 µM with SW-620 colon; above 100 µM in the test on A498 renal; 53.6 µM in the test with HCT-116 colon; above 100 µM with SF-268 CNS; above 100 µM in the test on EKVX NSCLC; 25.7 µM in the test on CCRF-CEM leukemia. For the same compound, the TGI was above 100 µM in the test on MALME-3M melanoma, 58.9 µM in the test on OVCAR-4 ovarian, above 100 µM with SK-MEL-2 melanoma and above 100 µM in the test on UACC-62 melanoma.

For `CC(=O)Nc1ccc(/C=C/[N+](=O)[O-])cc1`, the TGI with SW-620 colon turned out to be 11 µM; in the test with A498 renal, 15.2 µM; with HCT-116 colon, 6.07 µM; with SF-268 CNS it was 11.2 µM; in the test on EKVX NSCLC it was 12.9 µM; in the test on CCRF-CEM leukemia, 7.48 µM. For the same compound, the TGI with MALME-3M melanoma worked out at 17.7 µM; in the test with OVCAR-4 ovarian, 7.97 µM; in the test on SK-MEL-2 melanoma, 25.6 µM; in the test on UACC-62 melanoma it was 4 µM.

Turning to `COP(=O)(OC)C(NC(c1ccccc1)c1ccccc1)c1ccc2c(c1)OCO2` (stereo not given), the GI50 was 31.7 µM with SW-620 colon; 22.8 µM in the test with A498 renal; 16.3 µM with HCT-116 colon; 29.2 µM with SF-268 CNS; 31.4 µM with EKVX NSCLC; 2.26 µM with CCRF-CEM leukemia. Besides, the GI50 with MALME-3M melanoma was 27.4 µM; in the test on OVCAR-4 ovarian it was 30.5 µM; in the test on SK-MEL-2 melanoma it was 23.8 µM; in the test with UACC-62 melanoma it was 16 µM. Moreover, the TGI with SW-620 colon is above 100 µM; in the test on A498 renal it was 44.2 µM; in the test with HCT-116 colon, 35.3 µM; with SF-268 CNS, 91.8 µM; in the test with EKVX NSCLC, 92.6 µM; with CCRF-CEM leukemia it was 29.7 µM. Moreover, the TGI in the test on MALME-3M melanoma came to 58.9 µM; in the test on OVCAR-4 ovarian it was 89.9 µM; in the test on SK-MEL-2 melanoma, 50.2 µM; in the test on UACC-62 melanoma it was 32.2 µM.

As for `CN(C)CCCn1c2c(c3cnccc3c1=O)C(=O)c1ccccc1-2`, the GI50 in the test with SW-620 colon is 0.209 µM; with A498 renal it was 1.17 µM; in the test on HCT-116 colon, 0.245 µM; with SF-268 CNS, 0.62 µM; in the test on EKVX NSCLC, 2.33 µM; in the test with CCRF-CEM leukemia, 0.318 µM. In addition, the GI50 was 0.287 µM in the test with MALME-3M melanoma, 0.601 µM with OVCAR-4 ovarian, 0.829 µM in the test with SK-MEL-2 melanoma and 0.309 µM in the test on UACC-62 melanoma. Besides, the TGI in the test on SW-620 colon amounted to 10.9 µM; in the test with A498 renal it was 5.95 µM; in the test with HCT-116 colon, 11.7 µM; with SF-268 CNS it was 7.24 µM; in the test with EKVX NSCLC, 16 µM; in the test on CCRF-CEM leukemia, 2.87 µM. Moreover, the TGI stood at 1.05 µM in the test with MALME-3M melanoma, 8.89 µM in the test on OVCAR-4 ovarian, 3.6 µM in the test with SK-MEL-2 melanoma and 1.46 µM with UACC-62 melanoma.

For `CCOC(=O)CC(=O)Sc1ccccc1`, the TGI with SW-620 colon came out at 39.4 µM; with A498 renal, 57.4 µM; in the test with HCT-116 colon it was 26.8 µM; in the test with SF-268 CNS, 23.1 µM; with EKVX NSCLC, 74 µM; in the test with CCRF-CEM leukemia it was 51.3 µM. Further, the TGI in the test on MALME-3M melanoma was above 100 µM; with OVCAR-4 ovarian, above 100 µM; with SK-MEL-2 melanoma, 67.9 µM; in the test with UACC-62 melanoma, 30.7 µM.

As for `CCCC[C@H]1C(=O)O[C@H](C)[C@H](NC(=O)c2cccc(NC=O)c2O)C(=O)O[C@@H](C)[C@@H]1OC(=O)CC(C)C`, the TGI with SW-620 colon is 68.3 µM; in the test on A498 renal, 30 µM; in the test on HCT-116 colon, 19.5 µM; with SF-268 CNS, 35.5 µM; in the test on EKVX NSCLC it was 37.9 µM; with CCRF-CEM leukemia it was 6.29 µM. Also, the TGI in the test on MALME-3M melanoma came out at 50.9 µM; with OVCAR-4 ovarian it was 63.4 µM; in the test with SK-MEL-2 melanoma, 22.2 µM; with UACC-62 melanoma, 22.1 µM.

As for `Cc1ccccc1-c1c(N)nc(NC#N)nc1C(=O)Nc1ccccc1`, the TGI in the test on SW-620 colon, in the test on A498 renal, in the test with HCT-116 colon, in the test with SF-268 CNS, with EKVX NSCLC and in the test with CCRF-CEM leukemia was above 100 µM in each case. For the same compound, the TGI in the test on MALME-3M melanoma, in the test on OVCAR-4 ovarian, in the test with SK-MEL-2 melanoma and in the test with UACC-62 melanoma was above 100 µM throughout.

`O=C(O)c1ccc2c(c1)Cc1cc([N+](=O)[O-])ccc1-2`: the TGI in the test on SW-620 colon, in the test on A498 renal, in the test with HCT-116 colon, in the test with SF-268 CNS, in the test with EKVX NSCLC and in the test on CCRF-CEM leukemia was above 100 µM throughout. Moreover, the TGI with MALME-3M melanoma, in the test on OVCAR-4 ovarian, with SK-MEL-2 melanoma and with UACC-62 melanoma was above 100 µM in each case.

Regarding `COC(=O)C1=C(C)N(NC(N)=O)C2(N)N(NC(N)=O)C(C)=C(C(=O)OC)C12C(=O)OC` (stereo not given), the TGI in the test with SW-620 colon, with A498 renal, in the test with HCT-116 colon, in the test on SF-268 CNS, in the test with EKVX NSCLC and in the test on CCRF-CEM leukemia was above 100 µM throughout. Further, the TGI with MALME-3M melanoma, in the test with OVCAR-4 ovarian, in the test on SK-MEL-2 melanoma and with UACC-62 melanoma was above 100 µM in each case.

Turning to `Cc1ccc2c(c1)nc(C(=O)c1ccco1)c(C(F)(F)F)[n+]2[O-]`, the GI50 is 1.75 µM in the test on SW-620 colon; 1.66 µM with A498 renal; above 100 µM with HCT-116 colon; above 100 µM with SF-268 CNS; 57.5 µM in the test with EKVX NSCLC; above 100 µM in the test with CCRF-CEM leukemia. For the same compound, the GI50 with MALME-3M melanoma was above 100 µM; in the test with OVCAR-4 ovarian, 76.3 µM; with SK-MEL-2 melanoma, above 100 µM; in the test with UACC-62 melanoma, 89.1 µM. The TGI in the test with SW-620 colon is 3.33 µM; with A498 renal, 3.06 µM; in the test on HCT-116 colon, above 100 µM; in the test with SF-268 CNS, above 100 µM; with EKVX NSCLC, above 100 µM; in the test with CCRF-CEM leukemia, above 100 µM. Besides, the TGI in the test on MALME-3M melanoma, with OVCAR-4 ovarian, in the test on SK-MEL-2 melanoma and in the test with UACC-62 melanoma was above 100 µM in each case.

On to `CCCCCCCCCCCCCCCCCC(=O)OCC(CN(C)CCN(C)C)OC(=O)CCCCCCCCCCCCCCCCC` (stereo not given), for which the TGI in the test with SW-620 colon, in the test on A498 renal, with HCT-116 colon, with SF-268 CNS, with EKVX NSCLC and in the test on CCRF-CEM leukemia was above 100 µM each time. Also, the TGI in the test on MALME-3M melanoma, in the test on OVCAR-4 ovarian, in the test with SK-MEL-2 melanoma and in the test on UACC-62 melanoma was above 100 µM in each case.
